Like-named read-outs stand apart in the source and are kept apart here.
Target: T1, hMOR (Homo sapiens, UniProt P35372)
T1 construct: host or cells: CHO-K1
Experiment: cell-based
Assay type: cell-based
Details: for AUC: AUC of [Ca2+]i fluorescence
Description: Chinese hamster ovary (CHO)-K1 cells expressing hMOR and Gα15 (CHO-K1/MOR/Gα15) were cultured in F12 medium (GIBCO) supplemented with 10 μg/mL Hygromycin B (Invivogen), 20 μg/mL Zeocin (Invivogen) and P/S/F (100 units/mL penicillin, 100 μg/mL streptomycin, 10% fetal bovine serum). The cultures were incubated at 37° C. in a humidified 5% CO2 incubator.
One day prior to running the assay, CORNING® black 96-well assay plates having a clear flat bottom were coated with a 0.1 mg/mL Poly-L-Lysine solution. CHO-K1/MOR/Gα15 cells were suspended in F12 medium and plated at a density of about 8×10^4 cells/well in 200 μL medium. Cells were incubated under a humidified atmosphere of 10% CO2 at 37° C. overnight to reach an 80-90% confluent cell monolayer before the assay. On the day of the assay, 150 μL medium was removed from each well of the plates. To each well were added FLIPR® calcium assay reagents (Molecular Devices Corporation, Sunnyvale, Calif., USA; 50 μL) dissolved in 1× assay buffer (HBSS: KCl 5 mM, KH2PO4 0.3 mM, NaCl 138 mM, NaHCO3 4 mM, Na2HPO4 0.3 mM, d-glucose 5.6 mM, with additional 20 mM HEPES and […], pH 7.4) and 2.5 mM probenecid. After incubation at 37° C. for 1 hour, a test compound, alone or together with naloxone (a MOR antagonist), was also added to each well. Using a FlexStationlll instrument (Molecular Devices Corp.), increments of the [Ca^2+]i fluorescence after robotic injection of the cell suspension were monitored at 1.52 s intervals using the excitation wavelength of 485 nm and the emission wavelength of 525 nm. The [Ca^2+]i fluorescence was measured up to 90 s after the injection. The fluorescence intensity from 6 to 12 wells of cells were averaged and the relative amount of [Ca^2+]i release was determined by integrating the AUC of the [Ca^2+]i fluorescence averages.
A CHO-K1 cell line expressing MOR and Gα15 (GenScript) was used to set up a sensitive high-throughput screen (HTS) system. […] The HTS was performed in the absence or presence of naloxone (an opioid antagonist; 20 nM), to identify AAMs.

[1] = combined with naloxone, CHO-K1/MOR/Gα15 cells
[2] = combined with naloxone, CHO-K1/MOR/Gα15 cells, read-out: EC50
[3] = EC50, combined with naloxone, CHO-K1/MOR/Gα15 cells

T1 sequence (P35372 whole entry): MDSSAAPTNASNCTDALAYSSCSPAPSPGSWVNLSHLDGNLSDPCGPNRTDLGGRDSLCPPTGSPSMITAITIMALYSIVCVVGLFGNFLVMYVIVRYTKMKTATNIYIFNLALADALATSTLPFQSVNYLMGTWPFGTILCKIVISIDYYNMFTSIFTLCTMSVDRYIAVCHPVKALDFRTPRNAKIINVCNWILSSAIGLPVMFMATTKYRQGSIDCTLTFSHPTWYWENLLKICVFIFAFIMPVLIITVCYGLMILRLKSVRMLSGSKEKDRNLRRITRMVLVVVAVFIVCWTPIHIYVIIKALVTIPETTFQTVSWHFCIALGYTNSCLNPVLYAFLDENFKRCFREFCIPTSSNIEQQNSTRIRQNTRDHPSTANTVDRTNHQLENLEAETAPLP

Structure (SMILES) | AUC [1] | EC50 [2] | EC50 (EC50, combined with naloxone) | EC50 [3]
Cc1nc(C)c(-c2csc(Nc3ccc(C(=O)O)cc3C)n2)s1 [Compound 57, 4-[(2′,4′-Dimethyl-4,5′-bi-1,3-thiazol-2-yl)amino]-3-methylbenzoic acid] | − (−: <5000) | > 10 µM | – | –
Cc1nc(C)c(-c2csc(Nc3ccc(O)cc3C)n2)s1 [Compound 60, 4-[(2′,4′-Dimethyl-4,5′-bi-1,3-thiazol-2-yl)amino]-3-methylphenol] | − (−: <5000) | > 10 µM | – | –
Cc1nc(C)c(-c2csc(Nc3ccccc3CO)n2)s1 [Compound 62, {2-[(2′,4′-Dimethyl-4,5′-bi-1,3-thiazol-2-yl)amino]phenyl}methanol] | − (−: <5000) | > 10 µM | – | –
Cc1nc(C)c(-c2csc(Nc3ccccc3O)n2)s1 [Compound 65, 2-[(2′,4′-Dimethyl-4,5′-bi-1,3-thiazol-2-yl)amino]phenol] | + (+: >5000) | > 10 µM | – | –
Cc1nc(C)c(-c2csc(Nc3ccccc3N3CCCCC3)n2)s1 [Compound 68, 2′,4′-Dimethyl-N-[2-(1-piperidinyl)phenyl]-4,5′-bi-1,3-thiazol-2-amine] | − (−: <5000) | > 10 µM | – | –
Cc1nc(C)c(-c2csc(Nc3ccccc3N3CCOCC3)n2)s1 [Compound 70, 2′,4′-Dimethyl-N-[2-(4-morpholinyl)phenyl]-4,5′-bi-1,3-thiazol-2-amine] | − (−: <5000) | – | < 10 µM | 3 to 10 µM
Cc1nc(C)c(-c2csc(Nc3ccccc3-n3cccc3)n2)s1 [Compound 72, 2′,4′-Dimethyl-N-[2-(1H-pyrrol-1-yl)phenyl]-4,5′-bi-1,3-thiazol-2-amine] | − (−: <5000) | > 10 µM | – | –
Cc1nc(C)c(-c2csc(Nc3ccc(N(C)C)cc3C)n2)s1 [Compound 75, N^1-(2′,4′-Dimethyl-4,5′-bi-1,3-thiazol-2-yl)-N^4,N^4,2-trimethyl-1,4-benzenediamine] | − (−: <5000) | > 10 µM | – | –
Cc1nc(C)c(-c2csc(Nc3cccc(Cl)c3C)n2)s1 [Compound 77, N-(3-Chloro-2-methylphenyl)-2′,4′-dimethyl-4,5′-bi-1,3-thiazol-2-amine] | − (−: <5000) | > 10 µM | – | –
Cc1nc(C)c(-c2csc(Nc3ncccc3C)n2)s1 [Compound 79, 2′,4′-Dimethyl-N-(3-methyl-2-pyridinyl)-4,5′-bi-1,3-thiazol-2-amine] | − (−: <5000) | > 10 µM | – | –
CCc1ccc(C)nc1Nc1nc(-c2sc(C)nc2C)cs1 [Compound 82, N-(3-Ethyl-6-methyl-2-pyridinyl)-2′,4′-dimethyl-4,5′-bi-1,3-thiazol-2-amine] | − (−: <5000) | > 10 µM | – | –
COc1cccc(Nc2nc(-c3sc(C)nc3C)cs2)c1C [Compound 85, N-(3-Methoxy-2-methylphenyl)-2′,4′-dimethyl-4,5′-bi-1,3-thiazol-2-amine] | + (+: >5000) | – | < 10 µM | 3 to 10 µM
Cc1nc(C)c(-c2csc(Nc3cccc(C(F)(F)F)c3C)n2)s1 [Compound 87, 2′,4′-Dimethyl-N-[2-methyl-3-(trifluoromethyl)phenyl]-4,5′-bi-1,3-thiazol-2-amine] | − (−: <5000) | > 10 µM | – | –
Cc1nc(C)c(-c2csc(Nc3cccc(O)c3C)n2)s1 [Compound 89, 3-[(2′,4′-Dimethyl-4,5′-bi-1,3-thiazol-2-yl)amino]-2-methylphenol] | − (−: <5000) | > 10 µM | – | –
CCc1ccccc1Nc1nc(-c2sc(-c3ccccc3)nc2C)cs1 [Compound 92, N-(2-Ethylphenyl)-4′-methyl-2′-phenyl-4,5′-bi-1,3-thiazol-2-amine] | − (−: <5000) | > 10 µM | – | –
Cc1ccc(Nc2nc(-c3sc(-c4ccccc4)nc3C)cs2)c(C)c1 [Compound 93, N-(2,4-Dimethylphenyl)-4′-methyl-2′-phenyl-4,5′-bi-1,3-thiazol-2-amine] | − (−: <5000) | > 10 µM | – | –
CCc1ccccc1Nc1nc(-c2sc(-c3ccc(Cl)cc3)nc2C)cs1 [Compound 94, 2′-(4-Chlorophenyl)-N-(2-ethylphenyl)-4′-methyl-4,5′-bi-1,3-thiazol-2-amine] | − (−: <5000) | > 10 µM | – | –
CCc1nc(C)c(-c2csc(Nc3ccccc3CC)n2)s1 [Compound 95, 2′-Ethyl-N-(2-ethylphenyl)-4′-methyl-4,5′-bi-1,3-thiazol-2-amine] | + (+: >5000) | – | < 10 µM | 3 to 10 µM

Structure (SMILES) | AUC [1] | EC50 [2] | EC50 (EC50, combined with naloxone) | EC50 [3]
CCc1ccccc1Nc1nc(-c2sc(C)nc2C)c(C)s1 [Compound 98, N-(2-Ethylphenyl)-2′,4′,5-trimethyl-4,5′-bi-1,3-thiazol-2-amine] | − (−: <5000) | > 10 µM | – | –
CCc1ccccc1Nc1nc(-c2sc(N)nc2C)cs1 [Compound 100, N^2-(2-ethylphenyl)-4′-methyl-4,5′-bi-1,3-thiazole-2,2′-diamine] | − (−: <5000) | > 10 µM | – | –
CCc1ccccc1Nc1nc(-c2oc(C)nc2C)cs1 [Compound 102, 4-(2,4-Dimethyl-1,3-oxazol-5-yl)-N-(2-ethylphenyl)-1,3-thiazol-2-amine] | + (+: >5000) | – | < 10 µM | 3 to 10 µM
Cc1ccc(Nc2nc(-c3oc(C)nc3C)cs2)c(C)c1 [Compound 105, 4-(2,4-Dimethyl-1,3-oxazol-5-yl)-N-(2,4-dimethylphenyl)-1,3-thiazol-2-amine] | + (+: >5000) | > 10 µM | – | –
Cc1cc(C)c(Nc2nc(-c3oc(C)nc3C)cs2)c(C)c1 [Compound 106, 4-(2,4-Dimethyl-1,3-oxazol-5-yl)-N-(2,4,6-trimethylphenyl)-1,3-thiazol-2-amine] | + (+: >5000) | – | < 10 µM | 3 to 10 µM
CCc1ccccc1Nc1ncc(-c2sc(C)nc2C)o1 [Compound 107, 5-(2,4-Dimethyl-1,3-thiazol-5-yl)-N-(2-ethylphenyl)-1,3-oxazol-2-amine] | + (+: >5000) | > 10 µM | – | –
CCc1ccccc1Nc1ncc(-c2oc(C)nc2C)o1 [Compound 109, 5-(2,4-Dimethyl-1,3-oxazol-5-yl)-N-(2-ethylphenyl)-1,3-oxazol-2-amine] | − (−: <5000) | > 10 µM | – | –
COC(=O)Cc1cnc(Nc2nc(-c3sc(C)nc3C)cs2)s1 [Compound 111, Methyl {2-[(2′,4′-dimethyl-4,5′-bi-1,3-thiazol-2-yl)amino]-1,3-thiazol-5-yl}acetate] | − (−: <5000) | > 10 µM | – | –
Cc1csc(Nc2nc(-c3sc(C)nc3C)cs2)n1 [Compound 114, 2′,4′-Dimethyl-N-(4-methyl-1,3-thiazol-2-yl)-4,5′-bi-1,3-thiazol-2-amine] | − (−: <5000) | > 10 µM | – | –
Cc1nc(C)c(-c2csc(Nc3nc4ccccc4s3)n2)s1 [Compound 117, N-(1,3-Benzothiazol-2-yl)-2′,4′-dimethyl-4,5′-bi-1,3-thiazol-2-amine] | − (−: <5000) | > 10 µM | – | –
CCc1ccccc1Nc1nc(-c2ccc(C)cc2C)cs1 [Compound 120, 4-(2,4-Dimethylphenyl)-N-(2-ethylphenyl)-1,3-thiazol-2-amine] | − (−: <5000) | > 10 µM | – | –
CCc1ccccc1Nc1nc(-c2ccc(C)cc2)cs1 [Compound 121, N-(2-Ethylphenyl)-4-(4-methylphenyl)-1,3-thiazol-2-amine] | − (−: <5000) | > 10 µM | – | –
CCc1ccccc1Nc1nc(-c2ccc3c(c2)OCCCO3)cs1 [Compound 122, 4-(3,4-Dihydro-2H-1,5-benzodioxepin-7-yl)-N-(2-ethylphenyl)-1,3-thiazol-2-amine] | − (−: <5000) | > 10 µM | – | –
CCc1ccccc1Nc1nc(-c2ccccn2)cs1 [Compound 123, N-(2-Ethylphenyl)-4-(2-pyridinyl)-1,3-thiazol-2-amine] | − (−: <5000) | > 10 µM | – | –
CCc1ccccc1Nc1nc(-c2cccs2)cs1 [Compound 124, N-(2-Ethylphenyl)-4-(2-thiophenyl)-1,3-thiazol-2-amine] | − (−: <5000) | > 10 µM | – | –
CCc1ccccc1Nc1nc(-c2nccs2)cs1 [Compound 126, N-(2-Ethylphenyl)-2,4′-bi-1,3-thiazol-2′-amine] | − (−: <5000) | > 10 µM | – | –
CCc1ccccc1Nc1nc2c(s1)Cc1ccccc1-2 [Compound 127, N-(2-Ethylphenyl)-8H-indeno[1,2-d][1,3]thiazol-2-amine] | − (−: <5000) | > 10 µM | – | –

From patent US9827228B2, “Opioid receptor modulators and use thereof” (priority 2015, dated 2017)
